# Source: patent publication US20240150368A1, “ULK INHIBITORS AND METHODS OF USE THEREOF” (Deciphera Pharmaceuticals, LLC, priority 2022, published 2024)
# Key:
# [1] = system: ULK kinase substrate ATG13 (pS318-ATG13) in A549 (KRAS mutant) cells; assay: pATG13 levels of mutant KRas A549 cells after treatment with ULK inhibitors in combination with trametinib (ELISA); assay type: cell-based, human
# Protocol: Cellular Inhibition of ULK Kinase Substrate ATG13 Protein pATG13 Levels of Mutant KRas A549 Cells after Treatment with ULK Inhibitors in Combination with Trametinib
# (§1) A549 (KRAS mutant) human lung cancer cells (6,000 cells/well) were added to a 384-well tissue-culture treated plate in 50 μL of pre-warmed DMEM medium supplemented with 10% characterized fetal bovine serum (Invitrogen, Carlsbad, CA), 100 units/mL penicillin G, and 100 μg/mL streptomycin and allowed to grow overnight at 37° C., 5% CO2, and 95% humidity. The following day, 10 μL of media containing trametinib or DMSO as a control was added to wells. The final concentration of trametinib in wells was 250 nM. A dose response of a test compound (0.6 μL per well) was added. DMSO (0.6 μL) was added to control wells. The plate was briefly shaken to mix wells and then incubated at 37° C. overnight. The next day, the media was aspirated and cells were washed with Dulbecco's Phosphate Buffered Saline (Gibco). Cells were lysed using MPER lysis buffer (Pierce, Rockford, IL) containing Halt Phosphatase and Protease Inhibitors (Pierce, Rockford, IL) and Phosphatase inhibitor cocktail 2 (Sigma, St. Louis, MO) at 4° C. for 10 min with shaking.
# (§2) Cellular levels of phospho-Serine 318 ATG13 (pATG13) were measured via an ELISA method. Total ATG13 Antibody (Cell Signaling Cat #13273) was used to coat the wells. The plate was incubated at 4° C. overnight and washed with ELISA wash buffer (Biolegend Cat #421601). The wells were then blocked with assay diluent (Biolegend Cat #421203) for 1 h at rt. Plate wells were washed with ELISA wash buffer. Cell lysate was added to wells and incubated at rt for 2 h. Plate wells were washed with ELISA wash buffer. Biotinylated pS318-ATG13 antibody (Rockland Immunochemicals Cat #600-401-C49) was diluted in assay diluent and added to each well and incubated at rt for 1 h. Plate wells were washed with ELISA wash buffer. Streptavidin linked to horseradish peroxidase (Thermo Fisher Cat #21140) was diluted in assay diluent and added to each well and incubated at rt for 1 h. Plate wells were washed with ELISA wash buffer. High sensitivity TMB substrate (Biolegend Cat #421101) was added to each well and incubated at rt for 20 min. The reaction was stopped with 2N Sulfuric Acid. The plate was analyzed at on a plate reader measuring absorbance at 450 nm and 540 nm (background). Signal was calculated by first subtracting the background absorbance at 540 nm from the absorbance at 450 nm for each well. Next, the background corrected absorbance at 450 nm from blank wells was subtracted from test wells. Data was compared to control wells to determine % ATG13 phosphorylation. GraphPad Prism was used to calculate IC50 values.
# [2] = system: ULK kinase substrate ATG13 (pS318-ATG13) in MiaPaCa-2 cells; assay: pATG13 levels of mutant KRas MiaPaCa-2 cells after treatment with ULK inhibitors in combination with trametinib (ELISA); assay type: cell-based, human
# Protocol: pATG13 Levels of Mutant KRas MiaPaCa-2 Cells after Treatment with ULK Inhibitors in Combination with Trametinib
# as §1, with “MiaPaCa-2” for “A549 (KRAS mutant)”, “pancreatic” for “lung”, “(10000” for “(6,000”, “G,” for “G, and”, “streptomycin, and 2.5% Horse Serum” for “streptomycin”, “minutes” for “min”
# as §2, with “2.0N sulfuric acid.” for “2N Sulfuric Acid.”
SMILES,IC50 [1],IC50 [2]
"CC/C(Nc1cnn(C2CCN(C(C)C)CC2)c1)=C1/C(=O)Nc2ccc(C(=O)NCC3CCC(C4CC4)O3)cc21 (centres unmarked) [Example 3, (Z)—N-((5-cyclopropyltetrahydrofuran-2-yl)methyl)-3-(1-((1-(1-isopropylpiperidin-4-yl)-1H-pyrazol-4-yl)amino)propylidene)-2-oxoindoline-5-carboxamide]",100 to 300 nM,100 to 300 nM
"CC/C(Nc1cnn(C(C)C)c1)=C1/C(=O)Nc2ccc(C(=O)NCC(F)(F)F)cc21 [Example 4, (Z)-3-(1-((1-isopropyl-1H-pyrazol-4-yl)amino)propylidene)-2-oxo-N-(2,2,2-trifluoroethyl)indoline-5-carboxamide]",100 to 300 nM,≤ 100 nM
"CC/C(Nc1cnn(C(C)C)c1)=C1/C(=O)Nc2ccc(C(=O)NCC3(C)COC3)cc21 [Example 5, (Z)-3-(1-((1-isopropyl-1H-pyrazol-4-yl)amino)propylidene)-N-((3-methyloxetan-3-yl)methyl)-2-oxoindoline-5-carboxamide]",> 600 nM,100 to 300 nM
CC/C(Nc1cnn(C2CCN(C(C)C)CC2)c1)=C1/C(=O)Nc2ccc(C(=O)N(C)CC(F)(F)F)cc21 [Example 7],≤ 100 nM,≤ 100 nM
CC/C(Nc1cnn(C2CCN(C(C)C)CC2)c1)=C1/C(=O)Nc2ccc(C(=O)NCC(F)(F)F)cc21 [Example 8],≤ 100 nM,≤ 100 nM
CC/C(Nc1cnn(C2CCN(C(C)C)CC2)c1)=C1/C(=O)Nc2ccc(C(=O)N(C)CCOC)cc21 [Example 9],300 to 600 nM,100 to 300 nM
CC/C(Nc1cnn(C2CCN(C(C)C)CC2)c1)=C1/C(=O)Nc2ccc(C(=O)NCC(C)C)cc21 [Example 16],≤ 100 nM,≤ 100 nM
CC/C(Nc1cnn(C2CCN(C(C)C)CC2)c1)=C1/C(=O)Nc2ccc(C(=O)NCC3CCO3)cc21 (centres unmarked) [Example 21],> 600 nM,≤ 100 nM
CC/C(Nc1cnn(C2CCN(C(C)C)CC2)c1)=C1/C(=O)Nc2ccc(C(=O)NCCC#N)cc21 [Example 26],> 600 nM,≤ 100 nM
CC/C(Nc1cnn(C2CCN(C(C)C)CC2)c1)=C1/C(=O)Nc2ccc(C(=O)NCC(C)(C)OC)cc21 [Example 27],100 to 300 nM,≤ 100 nM
CC/C(Nc1cnn(C2CCN(C(C)C)CC2)c1)=C1/C(=O)Nc2ccc(C(=O)NCC(C)(C)O)cc21 [Example 28],> 600 nM,≤ 100 nM
CC/C(Nc1cnn(C2CCN(C(C)C)CC2)c1)=C1/C(=O)Nc2ccc(C(=O)NC3CC(F)(F)C3)cc21 [Example 29],300 to 600 nM,≤ 100 nM
CC/C(Nc1cnn(C2CCN(C(C)C)CC2)c1)=C1/C(=O)Nc2ccc(C(=O)NCC3CC(F)(F)C3)cc21 [Example 30],100 to 300 nM,≤ 100 nM
CC/C(Nc1cnn(C2CCN(C(C)C)CC2)c1)=C1/C(=O)Nc2ccc(C(=O)NCCC(F)(F)F)cc21 [Example 31],≤ 100 nM,≤ 100 nM
CC/C(Nc1cnn(C2CCN(C3CCOCC3)CC2)c1)=C1/C(=O)Nc2ccc(C(=O)NCC(C)C)cc21 [Example 37],≤ 100 nM,≤ 100 nM
CC/C(Nc1cnn(C2CCN(C(C)C)CC2)c1)=C1/C(=O)Nc2ccc(C(=O)NCC3CC3)cc21 [Example 42],≤ 100 nM,≤ 100 nM
CC/C(Nc1cnn(C2CCN(C(C)C)CC2)c1)=C1/C(=O)Nc2ccc(C(=O)NCC3CCCC3)cc21 [Example 44],≤ 100 nM,≤ 100 nM

SMILES,IC50 [1],IC50 [2]
CC/C(Nc1ccc(N2CCN(C(C)C)CC2)cc1)=C1/C(=O)Nc2ccc(C(=O)NC[C@H]3CCCO3)cc21 [Example 47],≤ 100 nM,≤ 100 nM
CC/C(Nc1cnn(C2CCN(C)CC2)c1)=C1/C(=O)Nc2ccc(C(=O)NC[C@H]3CCCO3)cc21 [Example 51],> 600 nM,≤ 100 nM
CC/C(Nc1cnn(C2CCNCC2)c1)=C1/C(=O)Nc2ccc(C(=O)NC[C@H]3CCCO3)cc21 [Example 52],> 600 nM,≤ 100 nM
CC/C(Nc1cnn(C2CC3CCC(C2)N3C)c1)=C1/C(=O)Nc2ccc(C(=O)NC[C@H]3CCCO3)cc21 (some centres unmarked) [Example 53],> 600 nM,≤ 100 nM
CC/C(Nc1cnn(C2CN(C)C2)c1)=C1/C(=O)Nc2ccc(C(=O)NC[C@H]3CCCO3)cc21 [Example 54],300 to 600 nM,≤ 100 nM
CC/C(Nc1cnn(C)c1)=C1/C(=O)Nc2ccc(C(=O)NC[C@H]3CCCO3)cc21 [Example 55],100 to 300 nM,≤ 100 nM
CC/C(Nc1cnn(C2CCN(C(C)C)CC2)c1)=C1/C(=O)Nc2ccc(C(=O)NC[C@@H](C)OC)cc21 [Example 58],100 to 300 nM,≤ 100 nM
CC/C(Nc1ccc(N2CC3CC(C2)N3C)cc1)=C1/C(=O)Nc2ccc(C(=O)NCC(F)(F)F)cc21 [Example 60],≤ 100 nM,≤ 100 nM
CC/C(Nc1ccc(N2C[C@H]3CN(C)C[C@H]3C2)cc1)=C1/C(=O)Nc2ccc(C(=O)NCC(F)(F)F)cc21 [Example 61],≤ 100 nM,≤ 100 nM
CC/C(Nc1ccc(N2CC3(CN(C)C3)C2)cc1)=C1/C(=O)Nc2ccc(C(=O)NCC(F)(F)F)cc21 [Example 62],100 to 300 nM,≤ 100 nM
CC/C(Nc1ccc(N2CCN(C(C)C)CC2)cn1)=C1/C(=O)Nc2ccc(C(=O)NC[C@H]3CCCO3)cc21 [Example 93],≤ 100 nM,≤ 100 nM
CC/C(Nc1cnc(N2CCN(C(C)C)CC2)cn1)=C1/C(=O)Nc2ccc(C(=O)NCC(F)(F)F)cc21 [Example 94],100 to 300 nM,≤ 100 nM
CC/C(Nc1cnn(C(C)C)c1)=C1/C(=O)Nc2ccc(C(=O)NC[C@H]3CCCO3)cc21 [Example 95],≤ 100 nM,≤ 100 nM
CC/C(Nc1cnn(C2CCN(C(C)C)CC2)c1)=C1/C(=O)Nc2ccc(C(=O)NCCOC)cc21 [Example 98],300 to 600 nM,≤ 100 nM
CC/C(Nc1ccc(N2CCN(C(C)C)CC2)cc1)=C1/C(=O)Nc2cc(F)c(C(=O)NCC(F)(F)F)cc21 [Example 100],300 to 600 nM,100 to 300 nM
C/C(Nc1cnn(C(C)C)c1)=C1/C(=O)Nc2ccc(C(=O)NCC(F)(F)F)cc21 [Example 101],≤ 100 nM,≤ 100 nM
CC/C(Nc1cnn(CCOC)c1)=C1/C(=O)Nc2ccc(C(=O)NCC(F)(F)F)cc21 [Example 102],100 to 300 nM,≤ 100 nM
